Columns and labels:
Immunogen Peptides = test: NHP#91 Week 14 plasma binding to immunogen peptides by ELISA; type: in vivo, Rhesus macaques; conditions: NHP#91, Week 14, ELISA log AUC
Excerpt: (§1) Rhesus macaques were immunized in 5 groups for NHP#87 with the different MPER peptide liposomes. Group 5 animals were immunized with a swarm of all of the MPER peptide liposomes. 4 animals per group. NHP#91 was a study to compare two adjuvants. Group 1 had MPLA alone and Group2 had R848 alone. The immunogen for both groups was the original MPER656 peptide liposome. The idea was to compare group 1 and 2 from this study to group 4 from NHP#87 where the animals received both MPLA and R848.
(§2) NHP#91 and last group (656+MPLA+R848) is group 4 of NHP#87; Isolated plasma at Week 14 was screened for binding to each immunogen by ELISA. Plotted is the log area under the curve for binding for each individual monkey separated by group. Solid line indicates the average log AUC for each group.

MPER-Specific Proteins = test: NHP#91 Week 14 plasma binding to MPER-specific proteins by ELISA; type: in vivo, Rhesus macaques; conditions: NHP#91, Week 14, ELISA log AUC
Excerpt: as §1
as §2, with “NHP#87 (for all panels pre-immune substracted);” for “NHP#87;”

2F5 mAb [1] = test: SPR binding of 2F5 mAb to MPER peptide-liposomes with TLR adjuvants
Protocol: FIGS. 10A-10C. Interaction of 2F5 mAb with MPER peptide-liposomes conjugated to TLR adjuvants.
FIG. 21 Binding of BNAb 2F5 and 4E10 to MPER peptide-liposomes described in FIGS. 19-20. Synthetic MPER peptide-liposomes complexed to the indicated MPER peptide and TLR adjuvants (R848, Lipid A) were anchored on a BIAcore sencor ship (L1) and each mAb (2 μg/mL) injected over the surface. Binding shown is after subtraction of non-specific signal measured on a control liposome surface.

2F5 mAb [2] = conditions: for 2F5 mAb binding response: background subtracted, 10 seconds after the injection was stopped, peptides anchored to liposomes
Protocol: FIGS. 6A and 6B. […] FIG. 6A. […] FIG. 6B.
SPR binding assays were performed on a BIAcore 3000 (BIAcore Inc, Piscattaway, N.J.) maintained at 20° C. as previously described (Alam et al, J. Immunol. 178:4424-4435 (2007)). […] Specific binding responses of mAb binding were obtained following subtraction of non-specific binding on the scrambled 2F5 peptide surface.

## Monophosphoryl Lipid A [MPLA]
Immunogen Peptides
  plasma binding to immunogen peptides, adjuvant comparison: better than R848
MPER-Specific Proteins
  plasma binding to MPER-specific proteins, adjuvant comparison: better than R848

## NEKDLLALDSWKNLWNWFSITKWLWYIK [MPER656.2]
2F5 mAb [1]
  binding of 2F5 mAb to peptide-liposome construct: lack of binding

## QQEKNEQELLELDKWASLWNYKRWIILGLNKIVRMYS-biotin [consensus 2F5 epitope]
2F5 mAb [2]
  2F5 mAb binding response: 494.6 response unit

## QQEKNEQELLELDKWASSWNYKRWIILGLNKIVRMYS-biotin
2F5 mAb [2]
  off-rate of the mAb 2F5-peptide liposome complex: significantly slower off-rates
  2F5 mAb binding response: 616.7 response unit

— patent US10076567B2, “MPER-liposome conjugates and uses thereof” (Duke University, priority 2013, dated 2018)
